Measurements taken from patent US8168592B2 (Amgen Inc., priority 2005, dated 2012).
Read-outs that look alike come from different tables or passages of the source. Bridge positions count the residues as written; N and C are the ends. Square brackets hold non-standard residues; d marks the D form. Ends that are not written are not given here. Peptide text beside a SMILES is read from it. Oic = O=C(O)[C@@H]1C[C@@H]2CCCC[C@@H]2N1; 2Nal = N[C@@H](Cc1ccc2ccccc2c1)C(=O)O; hArg = N=C(N)NCCCC[C@H](N)C(=O)O; Cit = NC(=O)NCCC[C@H](N)C(=O)O; Aze = O=C(O)[C@@H]1CCN1; Ahx = NCCCCCC(=O)O

Target: T1, CGRP1 receptor (Homo sapiens, UniProt O60894+Q16602)
T1 construct: SK-N-MC cells express CRLR and RAMP1, which form CGRP1 receptor; endogenous in cells; host or cells: SK-N-MC human neuroblastoma cells
T1 sequence (Q16602 23-461): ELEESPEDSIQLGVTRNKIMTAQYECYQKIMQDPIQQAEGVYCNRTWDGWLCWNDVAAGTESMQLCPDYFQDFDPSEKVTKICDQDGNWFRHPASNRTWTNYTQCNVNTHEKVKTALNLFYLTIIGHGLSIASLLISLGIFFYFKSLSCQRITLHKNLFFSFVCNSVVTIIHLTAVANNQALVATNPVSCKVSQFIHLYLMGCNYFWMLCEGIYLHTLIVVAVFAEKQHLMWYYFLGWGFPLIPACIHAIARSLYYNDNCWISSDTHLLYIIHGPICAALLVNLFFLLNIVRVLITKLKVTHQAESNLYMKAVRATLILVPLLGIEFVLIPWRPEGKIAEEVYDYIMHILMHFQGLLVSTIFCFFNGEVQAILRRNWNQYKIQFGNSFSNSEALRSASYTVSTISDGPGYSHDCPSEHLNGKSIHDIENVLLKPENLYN
T1 sequence (O60894 27-148): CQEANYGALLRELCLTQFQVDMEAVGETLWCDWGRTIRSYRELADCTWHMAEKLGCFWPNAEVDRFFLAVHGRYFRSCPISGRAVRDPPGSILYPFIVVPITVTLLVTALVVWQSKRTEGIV
Experiment: in vitro CGRP1 receptor mediated cAMP assay in SK-N-MC cells
Format: cell-based
Procedure: The in vitro cAMP assay employed a human neuroblastoma-derived cell line (SK-N-MC). SK-N-MC cells express CRLR and RAMP1, which form CGRP1 receptor. CGRP1 receptor is a G-protein coupled receptor linked to the stimulatory G-protein, Gs. […] Briefly, two days before the assay, the cells were plated in 96-well plates in growth medium. On the day of the assay cells were rinsed with PBS followed by the addition of 60 μl of plasma free medium for 15 minutes at room temperature. […] The medium was then removed and the cells were lysed with 100 μl lysis buffer for 30 minutes at 37° C. for 30 minutes. Using a Tropix ELISA kit (Applied Biosystems, Foster City, Calif.), a cAMP-AP conjugate was diluted (1:100) and added (30 μl) to each well of a 96-well ELISA plate. An aliquot of the lysis buffer from the cell plate was then added to the ELISA plate followed by an aliquot of the cAMP antibody. This mixture was incubated for 1 hour at room temperature with gentle shaking. The ELISA plate was then washed 6× with wash buffer followed by the additions of a substrate enhancer. This mixture was incubated for 30 minutes at room temperature and then read on a MicroBeta Jet or EnVision plate reader. The results were analyzed using Prism (GraphPad).

[1] = Table 2C, unconjugated peptide, read-out: Peptide IC50

With CC(=O)N[C@@H](Cc1c[nH]c2ccccc12)C(=O)N[C@H](C(=O)N[C@H]1CCC(=O)NCCCC[C@@H](C(=O)NCC(=O)N[C@@H](CC(C)C)C(=O)N[C@@H](CC(C)C)C(=O)N[C@@H](CO)C(=O)N[C@@H](CCCNC(N)=O)C(=O)N[C@@H](CO)C(=O)NCC(=O)N2CC[C@H]2C(=O)N[C@H](C(=O)N[C@H](C(=O)N[C@@H](CCCCNC(=N)N)C(=O)N[C@@H](CCCCN)C(=O)N[C@@H](CC(N)=O)C(=O)N[C@@H](Cc2ccccc2)C(=O)N[C@H](C(=O)N2CCC[C@H]2C(=O)N[C@H](C(=O)N[C@@H](CC(=O)O)C(=O)N[C@H](C(=O)NCC(=O)N2CCC[C@H]2C(=O)N[C@@H](Cc2ccccc2)C(=O)N[C@@H](C)C(=O)N[C@@H](Cc2ccccc2)C(N)=O)C(C)C)[C@@H](C)O)C(C)C)C(C)C)C(C)C)NC(=O)[C@H](CC(C)C)NC(=O)[C@H](CCCCNC(=N)N)NC(=O)[C@H](Cc2c[nH]cn2)NC1=O)C(C)C [compound 909] (Ac-WVEH[hArg]LKGLLS[Cit]SG[Aze]VV[hArg]KNFVPTDVGPFAF-NH2; lactam 3-7) as the compound, how does the IC50 [1] read?
The IC50 was 3.45 nM.

For CC(=O)N[C@@H](Cc1c[nH]c2ccccc12)C(=O)N[C@H](C(=O)N[C@H](C(=O)N[C@@H](Cc1c[nH]cn1)C(=O)N[C@@H](CCCNC(=N)N)C(=O)N[C@@H](CC(C)C)C(=O)N[C@@H](C)C(=O)NCC(=O)N[C@@H](CC(C)C)C(=O)N[C@@H](CC(C)C)C(=O)N[C@@H](CO)C(=O)N[C@@H](CCCNC(=N)N)C(=O)N[C@@H](CO)C(=O)NCC(=O)NCC(=O)N[C@H](C(=O)N[C@H](C(=O)N[C@@H](CCCNC(=N)N)C(=O)N[C@@H](CCCCN)C(=O)N[C@@H](CC(N)=O)C(=O)N[C@@H](Cc1ccc2ccccc2c1)C(=O)N[C@H](C(=O)N1CCC[C@H]1C(=O)N[C@H](C(=O)N[C@@H](CC(=O)O)C(=O)N[C@H](C(=O)NCC(=O)N1CCC[C@H]1C(=O)N[C@@H](Cc1ccccc1)C(=O)N[C@@H](C)C(=O)N[C@@H](Cc1ccccc1)C(N)=O)C(C)C)[C@@H](C)O)C(C)C)C(C)C)C(C)C)[C@@H](C)O)C(C)C [compound 912] (Ac-WVTHRLAGLLSRSGGVVRKN[2Nal]VPTDVGPFAF-NH2), which IC50 [1] is on record?
The IC50 was 1.16 nM.

Which IC50 [1] does the source give for CC(C)C[C@H](NC(=O)CNC(=O)[C@H](C)NC(=O)[C@H](CC(C)C)NC(=O)[C@H](CCCNC(=N)N)NC(=O)[C@H](Cc1c[nH]cn1)NC(=O)[C@@H](NC(=O)[C@@H](NC(=O)[C@H](Cc1c[nH]c2ccccc12)NC(=O)CCCCCNC(=O)[C@@H](N)CS)C(C)C)[C@@H](C)O)C(=O)N[C@@H](CC(C)C)C(=O)N[C@@H](CO)C(=O)N[C@@H](CCCNC(=N)N)C(=O)N[C@@H](CO)C(=O)NCC(=O)NCC(=O)N[C@H](C(=O)N[C@H](C(=O)N[C@@H](CCCNC(=N)N)C(=O)N[C@@H](CCCCN)C(=O)N[C@@H](CC(N)=O)C(=O)N[C@@H](Cc1ccccc1)C(=O)N[C@H](C(=O)N1CCC[C@H]1C(=O)N[C@H](C(=O)N[C@@H](CC(=O)O)C(=O)N[C@H](C(=O)NCC(=O)N1CCC[C@H]1C(=O)N[C@@H](Cc1ccccc1)C(=O)N[C@@H](C)C(=O)N[C@@H](Cc1ccccc1)C(N)=O)C(C)C)[C@@H](C)O)C(C)C)C(C)C)C(C)C [compound 916] (H-C[Ahx]WVTHRLAGLLSRSGGVVRKNFVPTDVGPFAF-NH2) here?
Its IC50 is 1.8 nM.

Which IC50 (Table 3, unconjugated CGRP peptide analogs, n = 2-4, read-out: IC50) does the source give for CC(C)C[C@H](NC(=O)CNC(=O)[C@H](C)NC(=O)[C@H](CC(C)C)NC(=O)[C@H](CCCNC(=N)N)NC(=O)[C@H](Cc1cnc[nH]1)NC(=O)[C@@H](NC(=O)[C@@H](NC(=O)[C@@H](N)Cc1c[nH]c2ccccc12)C(C)C)[C@@H](C)O)C(=O)N[C@@H](CC(C)C)C(=O)N[C@@H](CO)C(=O)N[C@@H](CCCNC(=N)N)C(=O)N[C@@H](CO)C(=O)NCC(=O)NCC(=O)N[C@H](C(=O)N[C@H](C(=O)N[C@@H](CCCCN)C(=O)N[C@@H](CC(N)=O)C(=O)N[C@@H](CC(N)=O)C(=O)N[C@@H](Cc1ccccc1)C(=O)N[C@H](C(=O)N1CCC[C@H]1C(=O)N[C@H](C(=O)N[C@@H](CC(N)=O)C(=O)N[C@H](C(=O)NCC(=O)N[C@@H](CO)C(=O)N[C@@H](CCCCN)C(=O)N[C@@H](C)C(=O)N[C@@H](Cc1ccccc1)C(N)=O)C(C)C)[C@@H](C)O)C(C)C)C(C)C)C(C)C [compound 4] here?
The IC50 was 0.64 nM.

For “Ac-WVTHRLAGLLSASGGVVRCNFVPTDVGPFAF-NH2 [compound 772]”, which IC50 (Table 2D, read-out: IC50) is on record?
The IC50 was 2.75 nM.

For “Ac-WVTHRLAGLLSRSGGVCRNNFVPTDVGPFAF-NH2 [compound 820]”, which IC50 (Table 2D, read-out: IC50) is on record?
Its IC50 is 0.36 nM.

CC(=O)N[C@@H](Cc1c[nH]c2ccccc12)C(=O)N[C@H](C(=O)N[C@H](C(=O)N[C@@H](Cc1c[nH]cn1)C(=O)N[C@@H](CCCNC(N)=O)C(=O)N[C@@H](CC(C)C)C(=O)N[C@@H](C)C(=O)NCC(=O)N[C@@H](CC(C)C)C(=O)N[C@@H](CC(C)C)C(=O)N[C@@H](CO)C(=O)N[C@@H](CCCNC(N)=O)C(=O)N[C@@H](CO)C(=O)NCC(=O)NCC(=O)N[C@H](C(=O)N[C@H](C(=O)N[C@@H](CCCCNC(=N)N)C(=O)N[C@@H](CCCCN)C(=O)N[C@@H](CC(N)=O)C(=O)N[C@@H](Cc1ccccc1)C(=O)N[C@H](C(=O)N1[C@H](C(=O)N[C@H](C(=O)N[C@@H](CC(=O)O)C(=O)N[C@H](C(=O)NCC(=O)N2[C@H](C(=O)N[C@@H](Cc3ccccc3)C(=O)N[C@@H](C)C(=O)N[C@@H](Cc3ccc4ccccc4c3)C(N)=O)C[C@@H]3CCCC[C@@H]32)C(C)C)[C@@H](C)O)C[C@@H]2CCCC[C@@H]21)C(C)C)C(C)C)C(C)C)[C@@H](C)O)C(C)C [compound 132] (Ac-WVTH[Cit]LAGLLS[Cit]SGGVV[hArg]KNFV[Oic]TDVG[Oic]FA[2Nal]-NH2) was tested. Which IC50 (Table 2A, read-out: IC50) did it give?
The IC50 was 2.57 nM.

“SEQ ID NO:4 (WVTHRLAGLLSRSGGVVKNNFVPTNVGSKAF-NH2)” was tested. Which “improved potency relative to native CGRP(8-37) (SEQ ID NO:1)” value (cAMP assay) did it give?
Its value is “greater than 7 fold”.

CC(=O)N[C@@H](Cc1c[nH]c2ccccc12)C(=O)N[C@H](C(=O)N[C@H](C(=O)N[C@@H](Cc1c[nH]cn1)C(=O)N[C@@H](CCCNC(N)=O)C(=O)N[C@@H](CC(C)C)C(=O)N[C@@H](C)C(=O)NCC(=O)N[C@@H](CC(C)C)C(=O)N[C@@H](CC(C)C)C(=O)N[C@@H](CO)C(=O)N[C@@H](CCCNC(N)=O)C(=O)N[C@@H](CO)C(=O)NCC(=O)NCC(=O)N[C@H](C(=O)N[C@H](C(=O)N[C@@H](CCCNC(=N)N)C(=O)N[C@@H](CCCCN)C(=O)N[C@@H](CC(N)=O)C(=O)N[C@@H](Cc1ccccc1)C(=O)N[C@H](C(=O)N1CCC[C@H]1C(=O)N[C@H](C(=O)N[C@@H](CC(=O)O)C(=O)N[C@H](C(=O)NCC(=O)N1CCC[C@H]1C(=O)N[C@@H](Cc1ccccc1)C(=O)N[C@@H](C)C(=O)N[C@@H](Cc1ccc(I)cc1)C(N)=O)C(C)C)[C@@H](C)O)C(C)C)C(C)C)C(C)C)[C@@H](C)O)C(C)C [compound 923] was tested. Which IC50 [1] did it give?
The IC50 was 2.24 nM.

Which IC50 (Table 2A, read-out: IC50) does the source give for CC(=O)N[C@H](C(=O)N[C@H](C(=O)N[C@H](C(=O)N[C@H](C(=O)N[C@@H](Cc1c[nH]cn1)C(=O)N[C@@H](CCCNC(N)=O)C(=O)N[C@@H](CC(C)C)C(=O)N[C@@H](C)C(=O)NCC(=O)N[C@@H](CC(C)C)C(=O)N[C@@H](CC(C)C)C(=O)N[C@@H](CO)C(=O)N[C@@H](CCCNC(N)=O)C(=O)N[C@@H](CO)C(=O)NCC(=O)NCC(=O)N[C@H](C(=O)N[C@H](C(=O)N[C@@H](CCCCNC(=N)N)C(=O)N[C@@H](CCCCN)C(=O)N[C@@H](CC(N)=O)C(=O)N[C@@H](Cc1ccccc1)C(=O)N[C@H](C(=O)N1CCC[C@H]1C(=O)N[C@H](C(=O)N[C@@H](CC(=O)O)C(=O)N[C@H](C(=O)NCC(=O)N1CCC[C@H]1C(=O)N[C@@H](Cc1ccccc1)C(=O)N[C@@H](C)C(N)=O)C(C)C)[C@@H](C)O)C(C)C)C(C)C)C(C)C)[C@@H](C)O)C(C)C)C(C)C)C(C)C [compound 654] (Ac-VVVTH[Cit]LAGLLS[Cit]SGGVV[hArg]KNFVPTDVGPFA-NH2) here?
The IC50 was > 1000 nM.

Which IC50 (Table 2D, read-out: IC50) does the source give for CC(=O)N[C@@H](Cc1c[nH]c2ccccc12)C(=O)N[C@H](C(=O)N[C@H](C(=O)N[C@@H](Cc1cnc[nH]1)C(=O)N[C@@H](CCCCNC(=N)N)C(=O)N[C@@H](CC(C)C)C(=O)N[C@@H](C)C(=O)NCC(=O)N[C@@H](CC(C)C)C(=O)N[C@@H](CC(C)C)C(=O)N[C@@H](CO)C(=O)N[C@@H](CCCCNC(=N)N)C(=O)N[C@@H](CO)C(=O)NCC(=O)NCC(=O)N[C@H](C(=O)N[C@H](C(=O)N[C@@H](CCCNC(=N)N)C(=O)N[C@@H](CCCCN)C(=O)N[C@@H](CC(N)=O)C(=O)N[C@@H](Cc1ccccc1)C(=O)N[C@H](C(=O)N1CCC[C@H]1C(=O)N[C@H](C(=O)N[C@@H](CC(=O)O)C(=O)N[C@H](C(=O)NCC(=O)N1CCC[C@H]1C(=O)N[C@@H](Cc1ccccc1)C(=O)N[C@@H](C)C(=O)N[C@@H](Cc1ccccc1)C(N)=O)C(C)C)[C@@H](C)O)C(C)C)C(C)C)C(C)C)[C@@H](C)O)C(C)C [compound 784] here?
The IC50 was 2.1 nM.
